From ChEMBL document CHEMBL5370591, “A Potent and Narrow-Spectrum Antibacterial against Clostridioides difficile Infection” (J Med Chem, 2023)
In brackets after ≈: the same amount, converted by molar mass.

Legend:
[1] = tested on: Clostridioides difficile; assay: Antibacterial activity against Clostridium difficile ATCC 43255 measured after 48 hrs by two fold serial dilution method; format: functional
[2] = Selectivity ratio of IC50 for human THP-1 cells to MIC for Clostridium difficile ATCC 43255; format: toxicity
[3] = tested on: THP-1; assay: Cytotoxicity against human THP-1 cells assessed as increase in LDH release incubate for 24 hrs by trypan-blue staining based analysis; format: functional, cell-based; conditions: THP-1, 24 h

SMILES | MIC [1] [µg/mL] | selectivity ratio [2] | IC50 [3] [µg/mL]
Cl.NCc1ccc(-c2nc(-c3ccc(Oc4ccc(C(F)(F)F)cc4)cc3)no2)cc1 | 4 | 1 | 
O=[N+]([O-])c1ccccc1Oc1ccc(-c2noc(-c3ccc(O)cc3)n2)cc1 | 4 (≈ 10.7 µM) | 3 | 16 (≈ 42.6 µM)
Oc1ccc(-c2nc(-c3ccc(OC4CCCCC4Br)cc3)no2)cc1 (configuration not stated) | 2 (≈ 4.82 µM) | 4 | 8.4 (≈ 20.2 µM)
O=Cc1ccc(-c2noc(-c3ccc(O)cc3)n2)cc1 | > 128 |  | 
Oc1ccc(-c2nc(-c3ccc(Oc4ccccc4)cc3)no2)cc1 | 2 (≈ 6.05 µM) | 8 | 17 (≈ 51.5 µM)
Oc1ccc(-c2nnc(-c3ccc(OC4CCCC4)cc3)o2)cc1 | > 128 |  | 
Oc1ccc(-c2nc(-c3ccc(Oc4ccc(I)cc4)cc3)no2)cc1 | 16 (≈ 35.1 µM) |  | 
O=[N+]([O-])c1c[nH]nc1-c1nc(-c2ccc(Oc3ccc(C(F)(F)F)cc3)cc2)no1 | 4 (≈ 9.59 µM) | 5 | 21 (≈ 50.3 µM)
Oc1ccc(-c2nc(-c3ccc(OC4CCOC4)cc3)no2)cc1 (configuration not stated) | > 128 |  | 
Oc1ccc(-c2noc(-c3ccc(O)cc3)n2)cc1 | 128 (≈ 503 µM) |  | 
CC(C)(C)OC(=O)N1CCC(Oc2ccc(-c3noc(-c4nc([N+](=O)[O-])c[nH]4)n3)cc2)CC1 | > 128 |  | 
FC(F)(F)c1ccc(Oc2ccc(-c3noc(-c4cc[nH]n4)n3)cc2)cc1 | > 128 |  | 
c1cc2cc(-c3nc(-c4ccc5c(c4)CCO5)no3)ccc2[nH]1 | > 128 |  | 
